Experiment [1] concerns the target Rabbit Reticulocyte Lysate. Put plainly: Rabbit Reticulocyte Lysate: inhibition of eukaryotic protein synthesis (luciferase). The experiment is classed as biochemical. Particulars: 30° C. 90 minutes, read-out: Retic. IC50. The method, then:
Inhibition of eukaryotic protein synthesis was determined using the Rabbit Reticulocyte Lysate System, Nuclease-Treated from Promega (catalog #L-4960) with slight modifications to the manufacturer's protocol. Compounds were serial diluted in 0.5 mL microcentrifuge tubes by mixing and transferring 50 μL from the highest concentration to 50 μL of water, mixing and transferring 50 μL of this 2-fold dilution to 50 μL of water. This mixing and transferring was repeated so that there are a total of 8 tubes with serial dilutions of compound at 10× the desired screening concentration that are ultimately diluted to 1× by the addition of rabbit reticulocyte luciferase synthesis mixture. Serial dilutions of compounds were added ([…]) to wells in a black round bottom 96-well plate. Water (2.5 μL) was used as a “no inhibitor” control in 4 wells/plate. No RNA control reaction mixture ([…]; see below) was used as a control in 4 wells/plate for background luminescence. Rabbit reticulocyte luciferase synthesis mixture (22.5 μL; see below) was added to wells with compounds or water mixture and incubated at 30° C. for 90 minutes. Luciferase assay reagent (25 μL) was added with luminescence measured using a BioTek Synergy HTX plate reader. % Inhibition was determined relative to no inhibitor controls.
• 1,000 μL rabbit reticulocyte lysate • 5.7 μL Luciferase Control RNA (1 μg/μL) • 26 μL complete amino acid mixture • 395 μL water
• 70 μL rabbit reticulocyte lysate • 2 μL complete amino acid mixture • 28 μL water

In a further experiment the test system is E. coli S30 extract. Description: E. coli S30 extract: inhibition of bacterial protein synthesis (luciferase). Type of experiment: biochemical. Conditions: 37° C. 1 hour. The method, then: E. coli S30 extract: Inhibition of bacterial protein synthesis was determined using the E. coli S30 Extract System for Circular DNA (Promega catalog #L-2010) and Luciferase Assay Reagent (Promega catalog #E1500) with slight modifications to a published protocol. Fyfe, C., Sutcliffe, J. A. and Grossman, T. H. (2012) “Development and characterization of a Pseudomonas aeruginosa in vitro coupled transcription-translation assay system for evaluation of translation inhibitors” J. Microbiol. Methods 90(3), 256-261.
Compounds were serial diluted in 0.5 mL microcentrifuge tubes by mixing and transferring 50 μL from the highest concentration to 50 μL of water, mixing and transferring 50 μL of this 2-fold dilution to 50 μL of water. This mixing and transferring was repeated so that there are a total of 8 tubes with serial dilutions of compound at 10× the desired screening concentration that are ultimately diluted to 1× by the addition of S30 luciferase synthesis mixture. Serial dilutions of compounds were added (2 μL) to wells in a black round bottom 96-well plate. Water (2 μL) was used as a “no inhibitor” control in 4 wells/plate. No DNA control reaction mixture (20 μL; see below) was used as a control in 4 wells/plate for background luminescence. S30 luciferase synthesis mixture (18 μL; see below) was added to wells with compounds or water mixture and incubated at 37° C. for 1 hour. Reactions were stopped by transferring to 4° C. refrigerator for 5 minutes then 25 μL of luciferase activity mix was added. Luminescence was measured using a BioTek Synergy HTX plate reader. % Inhibition was determined relative to no inhibitor controls.
• 445 μL S30 extract, circular • 712 μL S30 Premix without amino acids • 4.45 μL pBESTluc™ DNA (1 μg/μL) • 78 μL complete amino acid mixture • 267 μL water
• 20 μL S30 extract, circular • 32 μL S30 Premix without amino acids • 7 μL complete amino acid mixture • 21 μL water

In the next experiment the test system is E. coli (Ec). Description: Broth microdilution MIC, E. coli. Type of experiment: cell-based. Conditions: for MIC: Escherichia coli, read-out: E. coli + bicarb 25 (MIC). How it is done: (§1) A certified BSL-2 laboratory was used for testing. Compounds were evaluated using the broth microdilution minimum inhibitory concentration (MIC) and minimum bactericidal concentration (MBC) assays defined by Clinical and Laboratory Standards Institute (CLSI) in the M26-A guideline against S. aureus (Sa), E. coli (Ec), K. pneumoniae (Kp), A. baumannii (Ab), E. faecalis (Ef) and P. aeruginosa (Pa).
(§2) MICs were determined using the Clinical Laboratory and Standards Institute (CLSI) Broth Microdilution Method with slight modification. Clinical and Laboratory Standards Institute (2012). “Methods for dilution antimicrobial susceptibility tests for bacteria that grow aerobically; approved standard, 9th ed. M07-A9. Clinical and Laboratory Standards Institute, Wayne, PA.” Serial two-fold dilutions of compounds are prepared in sterile clear round-bottom 96-well plates.
(§3) To prepare microdilution trays, two-fold dilutions of antimicrobial agent are prepared in growth medium: Cation-Adjusted Mueller-Hinton Broth (CAMHB), or CAMHB supplemented with sodium bicarbonate (25 mM final concentration prepared from a 1.0 M stock solution) or CAMHB supplemented with heat inactivated human serum (Fisher Cat. #BP2657100) 0-50% by adding 200 μL of the highest concentration to be tested (64 μg/mL, for example) in row A, mixing and transferring 100 μL from row A to 100 μL growth medium in row B, then repeating the mixing and transferring through row H of the 96-well plate, discarding the excess 100 μL remaining. This slight modification to the CLSI protocol enables evaluation of MICs for 3 compounds per plate in triplicate, albeit with only 8 compound dilutions (CLSI protocol enables 2 compounds in triplicate with 10 dilutions). Bacterial suspensions are added to a final concentration of 5×10^4 CFU/well by adding 5 μL of a 1:10 dilution of a 0.5 McFarland suspension (1×10^8 CFU/mL) for each bacterium evaluated. Bacterial suspensions were prepared using the growth method described by CLSI. Well-isolated colonies (3-5 from an agar plate) were selected using a sterile loop and used to inoculate a tube containing 4 mL of CAMHB. The cultures are incubated at 35±2° C. until it achieves or exceeds the turbidity of the 0.5 McFarland standard, determined by measuring A600nm (usually two to six hours). When growth exceeds a 0.5 McFarland standard, the turbidity is adjusted with broth to be equivalent to a 0.5 McFarland standard.
For orientation: Broth dilution looks for growth in wells or tubes with falling amounts of substance.

The next experiment deals with S. aureus (Sa). Put plainly: Broth microdilution MIC, S. aureus. Type of experiment: cell-based. Conditions: for MIC: Staphylococcus aureus, read-out: Sa + bicarb 25 (MIC). How it is done: as §1, §2, §3
The test system of another experiment is E. faecalis (Ef). Put plainly: Broth microdilution MIC, E. faecalis. The experiment is classed as cell-based. Particulars: Enterococcus faecalis, read-out: Ef + bicarb 25 (MIC). How it is done:
as §1, §2, §3

A further experiment deals with P. aeruginosa (Pa). Description: Broth microdilution MIC, P. aeruginosa. The experiment is classed as cell-based. Particulars: for MIC: Pseudomonas aeruginosa, read-out: Pa + bicarb 25 (MIC). How it is done:
as §1, §2, §3

For another experiment, the system named is A. baumannii (Ab). Put plainly: Broth microdilution MIC, A. baumannii. Particulars: Acinetobacter baumannii, read-out: Ab + bicarb 25 (MIC). Type of experiment: cell-based. The method, then:
as §1, §2, §3

Setting [2] is: E. coli, CAMHB supplemented with sodium bicarbonate 25 mM.
Where [3] appears, read: S. aureus, CAMHB supplemented with sodium bicarbonate 25 mM.
The mark [4] stands for this setting: P. aeruginosa, CAMHB supplemented with sodium bicarbonate 25 mM.

pIC50: −log10 of the molar value. Where a name gives a salt, the structure may show the parent alone. Read-outs that look alike come from different tables or passages of the source.

For the molecule `CC(C)(N)C(=O)N1CCN(C(=O)Nc2ccn(C3CCC(CN4C[C@@H]5[C@@H](N)[C@@H]5C4)CC3)c(=O)n2)CC1` (stereo partly drawn) [Compound 5, 4-(2-Amino-2-methylpropanoyl)-N-(1-(4-((exo-6-amino-3-azabicyclo[3.1.0]hexan-3-yl)methyl)cyclohexyl)-2-oxo-1,2-dihydropyrimidin-4-yl)piperazine-1-carboxamide hydrochloride salt], the pIC50 in experiment [1] was at most 6.00; in the experiment on E. coli S30 extract (hydrochloride salt), over 6.30. The “E. coli + bicarb 25 (MIC)” value in the experiment on E. coli (Ec) (setting [2]) was “+++ (An MIC value (μg/mL) that is less than 8 μg/mL)”. Also, the “Sa + bicarb 25 (MIC)” value in the experiment with S. aureus (Sa) (setting [3]) was “+++ (An MIC value (μg/mL) that is less than 8 μg/mL)”. Besides, the MIC in the experiment with E. faecalis (Ef) was under 8 µg/mL; in the experiment on A. baumannii (Ab) it was 8 to 32 µg/mL. For the same molecule, the “Pa + bicarb 25 (MIC)” value in the experiment on P. aeruginosa (Pa) (setting [4]) is listed as “+ (An MIC value (μg/mL) that is 32 μg/mL or greater)”.

With `CC(C)(N)C(=O)N1CCN(C(=O)Nc2ccn(C3=CCC(CN4C[C@@H]5[C@@H](N)[C@@H]5C4)CC3)c(=O)n2)CC1` (single isomer, unassigned) [Compound 33, 4-(2-Amino-2-methylpropanoyl)-N-(1-(4-(((exo)-6-amino-3-azabicyclo[3.1.0]hexan-3-yl)methyl)cyclohex-1-en-1-yl)-2-oxo-1,2-dihydropyrimidin-4-yl)piperazine-1-carboxamide hydrochloride salt], the results for the pIC50 (in experiment [1]; in the experiment with E. coli S30 extract) were at most 6.00 and over 6.30, respectively. Further, the MIC is under 8 µg/mL with E. coli (Ec) (setting [2]); under 8 µg/mL in the experiment on S. aureus (Sa) (setting [3]); under 8 µg/mL with E. faecalis (Ef) (E. faecalis, CAMHB supplemented with sodium bicarbonate 25 mM); over 32 µg/mL with P. aeruginosa (Pa) (setting [4]); 8 to 32 µg/mL in the experiment on A. baumannii (Ab) (A. baumannii, CAMHB supplemented with sodium bicarbonate 25 mM).

In the case of `CC(C)(N)C(=O)N1CCN(C(=O)Nc2ccn([C@H]3CC[C@H](CN4CCC5(CC4)CC(N)C5)CC3)c(=O)n2)CC1` [Compound 20, 4-(2-Amino-2-methylpropanoyl)-N-(1-(trans-4-((2-amino-7-azaspiro[3.5]nonan-7-yl)methyl)cyclohexyl)-2-oxo-1,2-dihydropyrimidin-4-yl)piperazine-1-carboxamide hydrochloride salt], the pIC50 in experiment [1] was at most 6.00; in the experiment on E. coli S30 extract, over 6.30. The MIC is under 8 µg/mL in the experiment on E. coli (Ec); under 8 µg/mL in the experiment on S. aureus (Sa); under 8 µg/mL in the experiment on E. faecalis (Ef); 8 to 32 µg/mL in the experiment with P. aeruginosa (Pa); under 8 µg/mL with A. baumannii (Ab).

Take `CC(C)(N)C(=O)N1CCN(C(=O)Nc2ccn(C3CCC(CN(CCF)C4CCC(N)CC4)CC3)c(=O)n2)CC1` (stereo in doubt) [Compound 48, trans-cis-4-(2-Amino-2-methylpropanoyl)-N-(1-(4-(((4-aminocyclohexyl)(2-fluoroethyl)amino)methyl)cyclohexyl)-2-oxo-1,2-dihydropyrimidin-4-yl)piperazine-1-carboxamide hydrochloride salt]: the pIC50 in experiment [1] was at most 6.00; in the experiment on E. coli S30 extract, over 6.30. The MIC with E. coli (Ec) is 8 to 32 µg/mL; with S. aureus (Sa), 8 to 32 µg/mL; with E. faecalis (Ef) it was 8 to 32 µg/mL; in the experiment on P. aeruginosa (Pa) it was over 32 µg/mL; in the experiment on A. baumannii (Ab), over 32 µg/mL.

As to `CC(C)(N)C(=O)N1CCN(C(=O)Nc2ccn(C3=CCC(CN4CC[C@@H](CN)C4)CC3)c(=O)n2)CC1` (stereo in doubt) [Compound 24, (R)-4-(2-Amino-2-methylpropanoyl)-N-(1-(4-((3-(aminomethyl)pyrrolidin-1-yl)methyl)cyclohex-1-en-1-yl)-2-oxo-1,2-dihydropyrimidin-4-yl)piperazine-1-carboxamide hydrochloride salt], the pIC50 in experiment [1] is at most 6.00; in the experiment on E. coli S30 extract, over 6.30. The MIC is under 8 µg/mL with E. coli (Ec); under 8 µg/mL with S. aureus (Sa); over 32 µg/mL in the experiment with E. faecalis (Ef); over 32 µg/mL with P. aeruginosa (Pa); over 32 µg/mL in the experiment with A. baumannii (Ab).

Regarding `CC(C)(N)C(=O)N1CCN(C(=O)Nc2ccn(C3CCC(CNC4CC5(CC(N)C5)C4)CC3)c(=O)n2)CC1` (stereo not shown) [Compound 53, 4-(2-Amino-2-methylpropanoyl)-N-(1-(4-(((6-aminospiro[3.3]heptan-2-yl)amino)methyl)cyclohexyl)-2-oxo-1,2-dihydropyrimidin-4-yl)piperazine-1-carboxamide hydrochloride salt], the results for the pIC50 (in experiment [1]; in the experiment with E. coli S30 extract) were at most 6.00 and over 6.30, respectively. Also, the minimum inhibitory concentration (MIC) in the experiment on E. coli (Ec) is 8 to 32 µg/mL; in the experiment on S. aureus (Sa), under 8 µg/mL; in the experiment with E. faecalis (Ef) it was 8 to 32 µg/mL; in the experiment with P. aeruginosa (Pa), over 32 µg/mL; in the experiment with A. baumannii (Ab), over 32 µg/mL.

On to `CC(C)(N)C(=O)N1CCN(C(=O)Nc2ccn(C3=CCC(CN4CC[C@H](CN)C4)CC3)c(=O)n2)CC1` (stereo in doubt) [Compound 23, (S)-4-(2-Amino-2-methylpropanoyl)-N-(1-(4-((3-(aminomethyl)pyrrolidin-1-yl)methyl)cyclohex-1-en-1-yl)-2-oxo-1,2-dihydropyrimidin-4-yl)piperazine-1-carboxamide hydrochloride salt], for which the pIC50 in experiment [1] was at most 6.00; in the experiment with E. coli S30 extract, over 6.30. The MIC with E. coli (Ec) was under 8 µg/mL; with S. aureus (Sa), under 8 µg/mL; in the experiment with E. faecalis (Ef), 8 to 32 µg/mL; in the experiment with P. aeruginosa (Pa) it was over 32 µg/mL; in the experiment with A. baumannii (Ab), over 32 µg/mL.

A word on the pIC50: it is −log10 of the IC50, conventionally taken in molar units. As usually defined, the MIC is the lowest concentration that inhibits growth of the organism.

The values above are taken from patent US20250084041A1, “ANTIMICROBIAL COMPOUNDS AND METHODS” (Curza Global, LLC, priority 2021, published 2025).
